# Experimental data taken from EPA's ToxValDB 9.5 (doi:10.2903/j.efsa.2015.4279).
# Key:
# [1] = test system: Typhlodromus pyri; assay: LR50; higher = less toxic; details: not reported; mortality
# [2] = test system: Oncorhynchus mykiss; details: chronic/long-term; duration: 95 days; growth
# [3] = test system: Folsomia candida; details: chronic/long-term
# [4] = test system: Oryctolagus sp.; details: reproduction developmental; hematological
# [5] = test system: Anas platyrhynchos; details: acute; oral; unspecified; mortality
# [6] = test system: Rattus norvegicus
# [7] = test system: Daphnia magna; details: chronic/long-term; duration: 21 days; reproduction
# [8] = test system: Tagia sp.
# [9] = test system: Colinus virginianus; details: chronic
# [10] = test system: Apis mellifera; details: acute; oral; unspecified; mortality
# [11] = test system: Bibionidae; details: chronic/long-term; duration: 28 days; development
# [12] = test system: Canidae; details: oral, Dog Other, hematological
smiles,measurement,setting,value
O=C(Nc1ccc(F)cc1)c1cccc(Oc2cccc(C(F)(F)F)c2)n1 [Picolinafen],LR50,[1],> 100 g/ha
same,NOEC,[2],0.0064 mg/L
same,NOEC,[3],250 mg/kg
same,NOAEL,[4],5 mg/kg-day
same,LD50,[5],> 2250 mg/kg-day
same,LD50,"[6]; acute, mortality",> 5000 mg/kg-day
same,NOAEL,[6]; chronic,4 mg/kg-day
same,NOEC,[7],0.007 mg/L
same,LC50,"[8]; acute, duration: 14 days, mortality",> 500 mg/kg
same,NOEC,"[8]; chronic/long-term, duration: 8 weeks",1.68 mg/kg
same,NOEL,[9],59.5 mg/kg-day
same,LD50,[10],> 200 µg/piece
same,NOEC,[11],0.18 mg/L
same,NOAEL,"[12]; chronic, duration: 1 years",1.4 mg/kg-day
same,NOAEL,"[12]; subchronic, duration: 90 days",5.2 mg/kg-day
